# In paper PMC11620503 (Antimicrobial Agents and Chemotherapy, 2024):
# Where two headings read alike, the source gives them in different places.
# Tests used:
# [1] = system: 55 isolates of A. baumannii; assay: MIC, broth microdilution; type: cell-based, Acinetobacter baumannii; details: for CLSI MIC interpretation I (intermediate) / CLSI MIC interpretation R (resistant) / CLSI MIC interpretation S (susceptible): CLSI breakpoints, marked c: breakpoints for β-lactam alone
# [2] = system: E. coli CDC-150 (NDM-5), PBP3 mutations; assay: MIC, broth microdilution; type: cell-based; details: Escherichia coli, fixed BLI concentration (μg/mL) in parentheses in label
# [3] = system: MEM-, imipenem/relebactam-, and ceftolozane/tazobactam-nonsusceptible P. aeruginosa; assay: MIC, broth microdilution; type: cell-based, Pseudomonas aeruginosa; details: for CLSI MIC interpretation I (intermediate) / CLSI MIC interpretation R (resistant) / CLSI MIC interpretation S (susceptible): CLSI breakpoints, marked c: breakpoints for β-lactam alone; for MIC Range / MIC50 / MIC90: fixed concentration (μg/mL) in label; for MIC50 / MIC90: Pseudomonas aeruginosa; for MIC50: read-out: MIC50; for MIC90: read-out: MIC90
# [4] = system: MEM-nonsusceptible Enterobacterales; assay: MIC, broth microdilution; type: cell-based; details: for CLSI MIC interpretation I (intermediate) / CLSI MIC interpretation R (resistant) / CLSI MIC interpretation S (susceptible): CLSI breakpoints, marked c: breakpoints for β-lactam alone; for MIC50 / MIC90: fixed concentration (μg/mL) in label
# [5] = system: E. coli CDC-162 (NDM-7), PBP3 mutations; assay: MIC, broth microdilution; type: cell-based; details: Escherichia coli
# [6] = system: E. coli CDC-151 (NDM-5), PBP3 mutations; assay: MIC, broth microdilution; type: cell-based; details: Escherichia coli, fixed BLI concentration (μg/mL) in parentheses in label
# [7] = system: Moraxella catarrhalis ATCC 25238; assay: MIC, reference strains of aerobic bacteria; type: cell-based; details: ATCC25238
# [8] = system: Streptococcus pneumoniae ATCC 49619; assay: MIC, reference strains of aerobic bacteria; type: cell-based; details: ATCC49619
# OXA-66 = OXA-66 (Acinetobacter baumannii, UniProt Q58XD2); assay: Ki app determination (Waley's method)
# OXA-66, sequence (Q58XD2 entry or part of it): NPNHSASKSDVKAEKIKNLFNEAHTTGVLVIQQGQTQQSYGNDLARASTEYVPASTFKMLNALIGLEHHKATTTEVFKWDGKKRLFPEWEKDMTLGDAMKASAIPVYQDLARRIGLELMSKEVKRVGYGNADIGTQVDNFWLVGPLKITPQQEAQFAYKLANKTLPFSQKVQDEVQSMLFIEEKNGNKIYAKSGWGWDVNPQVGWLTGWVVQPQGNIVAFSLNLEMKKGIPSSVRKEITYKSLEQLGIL
# OXA-48 = OXA-48 (Klebsiella pneumoniae, UniProt Q6XEC0); assay: Ki app determination (Waley's method)
# OXA-48, sequence (Q6XEC0 23-265, looked up, species assumed): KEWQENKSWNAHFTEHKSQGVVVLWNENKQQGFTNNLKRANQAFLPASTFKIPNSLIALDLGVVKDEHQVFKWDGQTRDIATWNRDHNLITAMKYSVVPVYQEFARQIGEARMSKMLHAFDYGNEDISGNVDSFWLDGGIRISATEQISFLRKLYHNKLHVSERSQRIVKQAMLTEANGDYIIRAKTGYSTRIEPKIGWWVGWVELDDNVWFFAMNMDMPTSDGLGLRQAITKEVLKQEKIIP
# [9] = system: Clostridium perfringens ATCC 13124; assay: microbe, parasite or virus in culture; type: cell-based; details: ATCC13124
# [10] = system: Acinetobacter baumannii ATCC 19606; assay: MIC, reference strains of aerobic bacteria; type: cell-based; details: ATCC19606
# [11] = system: Streptococcus pyogenes ATCC 12344; assay: MIC, reference strains of aerobic bacteria; type: cell-based; details: ATCC12344
# [12] = target: class A carbapenemase KPCs; assay: Ki app determination, range over enzymes; details: read-out: Ki app values, range
# [13] = target: class D carbapenemases, OXAs from Acinetobacter spp., and OXA-48; assay: Ki app determination, range over enzymes; details: read-out: Ki app, range; range over OXAs from Acinetobacter spp. and OXA-48
# Parvimonas micra KUB3000 = assay: MIC, agar dilution, reference strains of anaerobic bacteria; type: cell-based
# [14] = system: Streptococcus mitis GTC495 (ATCC 49456); assay: MIC, reference strains of aerobic bacteria; type: cell-based; details: ATCC49456
# OXA-65 = OXA-65 (Acinetobacter baumannii, UniProt Q58XD3); assay: Ki app determination (Waley's method)
# OXA-65, sequence (Q58XD3 entry or part of it): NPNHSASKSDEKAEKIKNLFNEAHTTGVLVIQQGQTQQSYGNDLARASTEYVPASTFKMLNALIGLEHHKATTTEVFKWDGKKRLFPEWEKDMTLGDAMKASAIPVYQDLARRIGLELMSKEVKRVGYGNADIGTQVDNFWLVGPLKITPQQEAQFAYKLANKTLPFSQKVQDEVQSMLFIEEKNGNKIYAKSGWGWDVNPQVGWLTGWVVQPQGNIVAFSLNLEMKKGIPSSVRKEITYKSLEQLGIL
# [15] = system: Eggerthella lenta ATCC 43055; assay: MIC, agar dilution, reference strains of anaerobic bacteria; type: cell-based; details: ATCC43055
# [16] = system: Klebsiella aerogenes NCTC 10006 (ATCC 13048); assay: MIC, reference strains of aerobic bacteria; type: cell-based
# [17] = system: Proteus vulgaris ATCC 6380; assay: MIC, reference strains of aerobic bacteria; type: cell-based; details: ATCC6380
# [18] = system: Micrococcus luteus ATCC 9341; assay: MIC, reference strains of aerobic bacteria; type: cell-based; details: ATCC9341
# CTX-Ms and PDC-11 = assay: Ki app determination, range over enzymes; details: read-out: Ki app values, range; range over CTX-Ms and PDC-11
# [19] = system: Proteus mirabilis NBRC 3849 (NCTC 6197); assay: MIC, reference strains of aerobic bacteria; type: cell-based
# [20] = Intrinsic antibacterial activity, MIC; type: cell-based
# [21] = system: Enterobacter hormaechei ATCC BAA-2082; assay: MIC, reference strains of aerobic bacteria; type: cell-based; details: ATCCBAA2082
# NDM-5 = NDM-5 (Klebsiella pneumoniae, UniProt C7C422, M154L/V88L); assay: Ki app determination (Waley's method)
# NDM-5, sequence (C7C422 29-270 V88L/M154L): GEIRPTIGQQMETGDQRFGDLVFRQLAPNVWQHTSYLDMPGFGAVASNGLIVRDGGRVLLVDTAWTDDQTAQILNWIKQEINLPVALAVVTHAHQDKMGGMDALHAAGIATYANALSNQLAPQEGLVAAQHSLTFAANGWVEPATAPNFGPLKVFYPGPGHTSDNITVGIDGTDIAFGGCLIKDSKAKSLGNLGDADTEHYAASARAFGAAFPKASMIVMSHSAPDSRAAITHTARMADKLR
# [22] = system: Pseudomonas aeruginosa ATCC 27853; assay: MIC, reference strains of aerobic bacteria; type: cell-based; details: ATCC27853
# [23] = system: Enterococcus faecalis ATCC 29212; assay: MIC, reference strains of aerobic bacteria; type: cell-based; details: ATCC29212
# [24] = system: P. aeruginosa CDC-110 (VIM-2); assay: MIC, broth microdilution; type: cell-based; details: Pseudomonas aeruginosa, agent alone
# [25] = system: Enterobacterales (154), CDC AR Bank; assay: MIC, broth microdilution; type: cell-based
# [26] = system: Serine-carbapenemase-producing Enterobacterales (6); assay: MIC and MBC testing; type: cell-based; details: 6 serine-carbapenemase-producing Enterobacterales; fixed BLI concentration (μg/mL) in label
# [27] = Acinetobacter baumannii (55), fixed concentration (μg/mL) in label
# [28] = Ceftolozane/tazobactam-nonsusceptible Pseudomonas aeruginosa (45)
# [29] = Imipenem/relebactam-nonsusceptible Pseudomonas aeruginosa (43)
# [30] = MEM-nonsusceptible Pseudomonas aeruginosa (76)
# [31] = MEM-nonsusceptible Enterobacterales (127), cefiderocol 126 isolates, tigecycline: FDA breakpoints
# [32] = MEM-nonsusceptible Enterobacterales (127), cefiderocol 126 isolates, read-out: MIC50
# [33] = MEM-nonsusceptible Enterobacterales (127), cefiderocol 126 isolates, read-out: MIC90
# [34] = CLSI breakpoints, marked c: breakpoints for β-lactam alone
# [35] = fixed concentration (μg/mL) in label
# [36] = MEM-nonsusceptible Enterobacterales (92), CDC AR Bank
compound,measurement,setting,value
"CC(C)(O/N=C(\C(=O)N[C@@H]1C(=O)N2C(C(=O)[O-])=C(C[N+]3(CCNC(=O)c4ccc(O)c(O)c4Cl)CCCC3)CS[C@H]12)c1csc(N)n1)C(=O)O [FDC, cefiderocol]",CLSI MIC interpretation I (intermediate),[1]; Acinetobacter baumannii (55),3.6%
same,CLSI MIC interpretation R (resistant),[1]; Acinetobacter baumannii (55),1.8%
same,CLSI MIC interpretation S (susceptible),[1]; Acinetobacter baumannii (55),94.5%
same,MIC Range,[1]; [27],≤0.06 to 16 µg/mL
same,MIC50,"[1]; Acinetobacter baumannii (55), fixed concentration (μg/mL) in label, read-out: MIC50",0.5 µg/mL
same,MIC90,"[1]; Acinetobacter baumannii (55), fixed concentration (μg/mL) in label, read-out: MIC90",4 µg/mL
same,MIC,[2],4 µg/mL
same,CLSI MIC interpretation I (intermediate),[3]; [28],0%
same,CLSI MIC interpretation R (resistant),[3]; [28],0%
same,CLSI MIC interpretation S (susceptible),[3]; [28],100%
same,MIC Range,[3]; [28],0.25 to 4 µg/mL
same,CLSI MIC interpretation I (intermediate),[3]; [29],0%
same,CLSI MIC interpretation R (resistant),[3]; [29],0%
same,CLSI MIC interpretation S (susceptible),[3]; [29],100%
same,MIC Range,[3]; [29],0.12 to 4 µg/mL
same,CLSI MIC interpretation I (intermediate),[3]; [30],0%
same,CLSI MIC interpretation R (resistant),[3]; [30],0%
same,CLSI MIC interpretation S (susceptible),[3]; [30],100%
same,MIC Range,[3]; [30],≤0.06 to 4 µg/mL
same,MIC50,[3]; [28],0.5 µg/mL
same,MIC90,[3]; [28],2 µg/mL
same,MIC50,[3]; [29],0.5 µg/mL
same,MIC90,[3]; [29],2 µg/mL
same,MIC50,[3]; [30],0.5 µg/mL
same,MIC90,[3]; [30],2 µg/mL
same,CLSI MIC interpretation I (intermediate),[4]; [31],3.2%
same,CLSI MIC interpretation R (resistant),[4]; [31],0.8%
same,CLSI MIC interpretation S (susceptible),[4]; [31],96%
same,MIC50,[4]; [32],1 µg/mL
same,MIC90,[4]; [33],2 µg/mL
same,MIC,[5],8 µg/mL
same,MIC,[6],4 µg/mL
"N[C@@H](C(=O)N1CC(Oc2ccc3c(c2C(=O)O)OB(O)CC3)C1)c1c[nH]cn1 [KSP-1007, 7-({1-[(2R)-2-amino-2-(1H-imidazol-4-yl)acetyl]azetidin-3-yl}oxy)-2-hydroxy-3,4-dihydro-2H-1,2-benzoxaborinine-8-carboxylic acid]",MIC,[7],64 µg/mL
same,MIC,[8],2 µg/mL
same,Ki,OXA-66,5.78 ± 0.654 nM
same,Ki,OXA-48,0.861 ± 0.0767 nM
same,MIC,[9],2 µg/mL
same,MIC,[10],> 128 µg/mL
same,MIC,[11],4 µg/mL
same,Ki,[12],0.836 to 2.19 nM
same,Ki,[13],0.621 to 5.78 nM
same,MIC,Parvimonas micra KUB3000,64 µg/mL
same,MIC,[14],4 µg/mL
same,Ki,OXA-65,5.44 ± 1.21 nM
same,MIC,[15],> 256 µg/mL
same,MIC,[16],> 128 µg/mL
same,MIC,[17],> 128 µg/mL
same,MIC,[18],128 µg/mL
same,Ki,CTX-Ms and PDC-11,0.0664 to 0.79 nM
same,MIC,[19],> 128 µg/mL
same,MIC,[20],≥ 64 µg/mL
same,MIC,[21],> 128 µg/mL
same,Ki,NDM-5,31.6 ± 12.3 nM
same,MIC,[22],> 128 µg/mL
same,MIC,[23],64 µg/mL
"C[C@@H](O)[C@H]1C(=O)N2C(C(=O)O)=C(S[C@@H]3CN[C@H](C(=O)N(C)C)C3)[C@H](C)[C@H]12 [MEM, meropenem]",MIC,[24],64 µg/mL
same,CLSI MIC interpretation I (intermediate),[1]; Acinetobacter baumannii (55),5.5%
same,CLSI MIC interpretation R (resistant),[1]; Acinetobacter baumannii (55),89.1%
same,CLSI MIC interpretation S (susceptible),[1]; Acinetobacter baumannii (55),5.5%
same,MIC50,[1]; [27],32 µg/mL
same,MIC50,"[1]; Acinetobacter baumannii, read-out: MIC50",32 µg/mL
same,MIC,[7],≤ 0.03 µg/mL
same,MIC,[2],> 32 µg/mL
same,MIC,[8],0.06 µg/mL
same,MIC,[10],0.5 µg/mL
same,MIC,[11],≤ 0.03 µg/mL
same,CLSI MIC interpretation I (intermediate),[3]; [28],6.7%
same,CLSI MIC interpretation R (resistant),[3]; [28],91.1%
same,CLSI MIC interpretation S (susceptible),[3]; [28],2.2%
same,CLSI MIC interpretation I (intermediate),[3]; [29],4.7%
same,CLSI MIC interpretation R (resistant),[3]; [29],95.3%
same,CLSI MIC interpretation S (susceptible),[3]; [29],0%
same,CLSI MIC interpretation I (intermediate),[3]; [30],14.5%
same,CLSI MIC interpretation R (resistant),[3]; [30],85.5%
same,CLSI MIC interpretation S (susceptible),[3]; [30],0%
same,MIC50,[3]; [28],64 µg/mL
same,MIC50,[3]; [29],64 µg/mL
same,MIC50,[3]; [30],16 µg/mL
same,CLSI MIC interpretation I (intermediate),[25]; [34],9.7%
same,CLSI MIC interpretation R (resistant),[25]; [34],50%
same,CLSI MIC interpretation S (susceptible),[25]; [34],40.3%
same,MIC50,[25]; [35],2 µg/mL
same,MIC90,[25]; [35],32 µg/mL
same,MIC,[14],≤ 0.03 µg/mL
same,CLSI MIC interpretation I (intermediate),[4]; [36],16.3%
same,CLSI MIC interpretation R (resistant),[4]; [36],83.7%
same,CLSI MIC interpretation S (susceptible),[4]; [36],0%
same,MIC50,[4]; [36],8 µg/mL
same,MIC90,[4]; [36],>32 µg/mL
same,CLSI MIC interpretation I (intermediate),[4]; [31],18.1%
same,CLSI MIC interpretation R (resistant),[4]; [31],81.9%
same,CLSI MIC interpretation S (susceptible),[4]; [31],0%
same,MIC50,[4]; [32],8 µg/mL
same,MIC90,[4]; [33],> 32 µg/mL
same,MIC,[5],32 µg/mL
same,MIC,[16],≤ 0.03 µg/mL
same,MIC,[17],≤ 0.03 µg/mL
same,MIC,[6],8 µg/mL
same,MIC Range,[26],1 to 64 µg/mL
same,MIC,[18],0.06 µg/mL
same,MIC,[19],≤ 0.03 µg/mL
same,MIC,[21],4 µg/mL
same,MIC,[22],0.25 µg/mL
same,MIC,[23],1 µg/mL
